The values that follow come from US8299097B2, “Methods for treating inflammatory disorders” (The Brigham and Women's Hospital, Inc., priority 2008, dated 2012).

One assay deals with naïve BALB/c mice. Briefly: Intranasal cys-LT in naïve BALB/c mice, lung histology. Type of assay: in vivo, mouse. The settings on record: 2 nmol, three successive days. On the procedure:
Thus, it was sought to determine whether either cys-LT amplified pulmonary […], BALB/c mice received inhalation challenges on three consecutive days with low-dose OVA (0.1%) for 30 minutes. Twelve hours before each challenge, the mice received intranasal LTD4, LTE4, or a buffer control. A cohort of mice treated with 1% OVA were maintained as a positive control. The mice were then euthanized, their BAL fluid collected, and their lungs examined histologically for evidence of inflammation and goblet cell metaplasia, a dominant pathologic signature of Th2-polarized mucosal inflammation. […] The extent of the cellularity and goblet cell responses of the LTE4-treated animals approached the levels of these parameters in the mice treated with 1% OVA.
(§1) 15 bronchovascular bundles of each mouse were evaluated.

The subject of the next assay is BALB/c mice. The experiment in a line: Cys-LT amplification of pulmonary inflammation in OVA sensitized, low-dose OVA challenged BALB/c mice. Type of assay: in vivo, mouse. The settings on record: intranasal cys-LT 12 h before each 0.1% OVA challenge. As to the method:
FIG. 3. LTE4-mediated amplification of allergen-induced pulmonary inflammation. 3A. BAL fluid total cell counts (top) with percentages (middle) and total numbers (bottom) of eosinophils. Mice were sensitized twice with alum-precipitated ovalbumin (OVA). […] A separate sensitized group of mice were treated with 1% OVA as a positive control. 3B. Quantitative analysis if pulmonary inflammation, measured as the number of bronchovascular bundles with cellular infiltrates per 15 such bundles per mouse. 3C. Representative fields of H & E-stained lungs from mice from the indicated experimental groups. 3D. Morphometric analysis of goblet cell metaplasia, measured as the numbers of PAS-positive cells per mm of bronchial basal lamina. 3E. Representative PAS stains showing goblet cells (arrows). Results in 3A, 3B, and 3D are mean±SEM from 8-9 mice per group.
Thus, it was sought to determine whether either cys-LT amplified pulmonary inflammation induced by the inhalation of low-dose allergen in sensitized mice. Two weeks after sensitization with chicken egg ovalbumin (OVA) by intraperitoneal injection, BALB/c mice received inhalation challenges on three consecutive days with low-dose OVA (0.1%) for 30 minutes. Twelve hours before each challenge, the mice received intranasal LTD4, LTE4, or a buffer control. A cohort of mice treated with 1% OVA were maintained as a positive control. The mice were then euthanized, their BAL fluid collected, and their lungs examined histologically for evidence of inflammation and goblet cell metaplasia, a dominant pathologic signature of Th2-polarized mucosal inflammation. […] The extent of the cellularity and goblet cell responses of the LTE4-treated animals approached the levels of these parameters in the mice treated with 1% OVA.
Male BALB/c mice (6-8 weeks old) received intraperitoneal injections of reagent-grade chicken egg ovalbumin (OVA) (10 μg) precipitated with aluminum hydroxide ([…]) on days 0 and 7. […] Twelve hours after each dose, the mice were exposed to an aerosol of 0.1% OVA for 30 min delivered by an ultrasonic nebulizer. […] The mice were euthanized 24 hours after their third and final aerosol challenge. In some experiments, the mice received clopidogrel (500 μg/ml) in drinking water for 3 days before receiving the first intranasal dose of LTs. The treatment was continued throughout the procedure.
as §1

A further assay deals with LAD2 cells. The experiment in a line: MIP-1β generation by LAD2 cells (ELISA). Type of assay: cell-based, human. As to the method:
FIG. 2. Requirement for P2Y12 receptors in LTE4-mediated LAD2 cell activation. 2A. Calcium flux of LAD2 cells stimulated with the indicated agonists (500 nM) in the presence or absence of the P2Y12 receptor-selective antagonist 2-MeSAMP (100 μM). […] 2B. […] Cells sensitized overnight with IgE and challenged with anti-IgE were used as the positive control. 2C. […] Results in 2B and 2C are mean±SEM from three independent experiments each. 2D. Effect of shRNA-mediated knockdown of P2Y12 receptor mRNA expression by LAD2 cells.
FIG. 9. Effect of apyrase treatment on LT-mediated activation of LAD2 cells. 9A. […] Concentrations of MIP-1β were measured by ELISA. 9B. […] Lysates were resolved by SDS-PAGE and probed with the indicated antibodies against phospho- and total ERK. Results in 9A are the mean±½ range from two experiments, while 9B is representative of two experiments.
Pre-treatment of the LAD2 cells with 2-MesAMP blocked the LTE4-mediated increment in MIP-1β production by >50% (FIG. 2B). […] To exclude potential off-target effects of the inhibitors, samples of LAD2 cells were transfected with lentiviruses encoding a P2Y12 sequence-specific shRNA, a CysLT1R-specific shRNA, or an empty vector control before stimulation. […] LTE4- and LTD4-dependent production of PGD2 were abrogated by the knockdowns of P2Y12 and CysLT1R, respectively (FIG. 2C, bottom). Neither GPCR knockdown altered MIP-1β generation or PGD2 production in response to IgE-anti-IgE (FIG. 2C). LTE4-mediated MIP-1β generation (FIG. 9A) and ERK activation (FIG. 9B) were not altered by treatment of LAD2 cells with apyrase to degrade extracellular ADP.
The concentration of MIP-1β was measured by an ELISA (ENDOGEN®). PGD2 was quantitated by a PGD2-methoxylamine hydrochloride (PGD2-MOX) assay.
Background: An ELISA detects its analyte on a solid surface through an enzyme-linked reagent.

Consider `CCCCC/C=C\C\C=C/C=C/C=C/[C@@H](SC[C@H](N)C(=O)NCC(=O)O)[C@@H](O)CCCC(=O)O` [LTD4], for which the “lung histology (cellular influx, goblet cell metaplasia)” value with naïve BALB/c mice is “no evidence of cellular influx or goblet cell metaplasia”. Moreover, in the assay on BALB/c mice, the BAL fluid eosinophilia result was “did not increase”, the bronchovascular inflammation entry is “tended to slightly potentiate” and the goblet cell metaplasia entry was “tended to slightly potentiate”.

As for `CN(C)C(=O)CCSC(SCCC(=O)O)c1cccc(/C=C/c2ccc3ccc(Cl)cc3n2)c1` (stereo not shown) [MK571], the “effect on MIP-1β response to LTD4 and LTE4” value in the assay with LAD2 cells (2-MesAMP 100 μM, MK571 1 μM) is reported as “suppressed the response to both ligands”.

For the molecule `CCCCC/C=C\C\C=C/C=C/C=C/[C@@H](SC[C@H](N)C(=O)O)[C@@H](O)CCCC(=O)O` [LTE4], the “lung histology (cellular influx, goblet cell metaplasia)” value with naïve BALB/c mice was “no evidence of cellular influx or goblet cell metaplasia”. Besides, in the assay on BALB/c mice, the BAL fluid eosinophilia entry is on record as “significantly enhanced”, the bronchovascular inflammation entry is reported as “significantly enhanced” and the goblet cell metaplasia entry was “significantly enhanced”. Also, the MIP-1β generation entry in the assay on LAD2 cells (LTE4 100 and 500 nM, 6 h) is “induced the generation of large amounts of MIP-1β”.
